Results on four compounds are retold here after article PMC6608564 (Journal of the Endocrine Society, 2019).

In general, Tmax refers to the time at which the peak concentration occurs. By half-life is commonly meant the time in which the quantity being followed falls by half.

For one data set, the target named is T1, human OXTR (Homo sapiens, UniProt P30559).
T1 sequence (P30559 1-389): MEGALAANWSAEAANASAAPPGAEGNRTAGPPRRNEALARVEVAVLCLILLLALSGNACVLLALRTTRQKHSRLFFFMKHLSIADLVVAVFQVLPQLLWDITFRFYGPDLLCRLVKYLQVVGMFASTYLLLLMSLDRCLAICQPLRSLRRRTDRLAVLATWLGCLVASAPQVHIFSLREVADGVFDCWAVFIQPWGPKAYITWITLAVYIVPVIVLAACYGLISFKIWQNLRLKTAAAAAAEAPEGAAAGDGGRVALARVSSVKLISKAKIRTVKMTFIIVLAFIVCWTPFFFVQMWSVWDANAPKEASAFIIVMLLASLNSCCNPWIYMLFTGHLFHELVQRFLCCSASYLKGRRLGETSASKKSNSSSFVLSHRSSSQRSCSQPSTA
In words: FLIPR calcium assay, AV12 cells stably expressing human OXTR. To be noted: Fig. 1 and Dryad data [67]; for receptor selectivity against vasopressin receptors (in words): OXTR vs V1a, V1b (FLIPR) and V2 (cAMP); for OXTR activity / potency (in words): in vitro OXTR assay. The format is cell-based.

Another data set in a line: Acute food intake study. The format is in vivo, male C57BL/6 mice. The conditions noted are these: conivaptan 0.5 mg/kg IP coadministered with OXT 2 mg/kg IP, Fig. 3F.
A short description of data set [1]: Pharmacokinetic measurement by mass spectrometry in mice. The format is in vivo, C57BL/6 mice.
A short description of data set [2]: Rat blood pressure telemetry. The conditions noted are these: IP 0.3, 1, 3 mg/kg, DIO Long-Evans rats. The format is in vivo, DIO male Long-Evans rats.
Data set [3] can be described thus: Food intake study with free-hand ICV injection. To be noted: 3 μg per mouse ICV. The format is in vivo, male C57BL/6 mice.
Data set [4] can be described thus: Chronic OXT analog treatment in DIO mice. To be noted: vs vehicle. The format is in vivo, C57BL/6 DIO mice.
[5] abbreviates: C57BL/6, mouse, plasma, ip, 1 mg/kg.

Turning to TC OT39, at human OXTR, the “receptor selectivity against vasopressin receptors (in words)” value is reported as “high degree of OXTR selectivity”; the “OXTR activity / potency (in words)” value was “significantly decreased potency (EC50) and efficacy (Emax)”.

For the compound `Cc1nc2c([nH]1)-c1ccccc1N(C(=O)c1ccc(NC(=O)c3ccccc3-c3ccccc3)cc1)CC2` [conivaptan], the “effect on OXT-induced food intake suppression” value in the data set “Acute food intake study” is given as “abolished OXT’s effect on food intake suppression”.

On to `CC[C@H](C)[C@@H]1NC(=O)[C@H](Cc2ccc(O)cc2)NC(=O)[C@@H](N)CSSC[C@@H](C(=O)N2CCC[C@H]2C(=O)N[C@@H](CC(C)C)C(=O)NCC(N)=O)NC(=O)[C@H](CC(N)=O)NC(=O)[C@H](CCC(N)=O)NC1=O` [OXT, oxytocin], for which the “time until plasma level dropped below detection” value in data set [1] (1 mg/kg IP, single dose, Fig. 2A) is less than 3 h. In addition, in data set [1] (setting [5]), the Tmax is approximately 30 min and the half-life is less than 30 min. For the same compound, in data set [2], the “mean arterial pressure (MAP)” value is recorded as “dose-dependently caused a statistically significant increase of MAP”. Besides, the “behavior during first hour after ICV injection (vocalization, grooming)” value in data set [3] is given as “clinical signs of behavioral distress”. For the same compound, the serum potassium level entry in data set [4] is listed as “significantly lower”.

carbetocin [OXT^Butyryl]: at human OXTR, the “receptor selectivity against vasopressin receptors (in words)” value is recorded as “increased receptor selectivity against vasopressin receptors” and the “OXTR activity / potency (in words)” value is given as “without affecting OXTR activation”.
